≈ marks a conversion by molar mass, not a printed value.
Tests used:
[1] = Kinetic solubility in aqueous media (nephelometry); type: physicochemical; settings: phosphate citrate buffer, pH 7.4, aqueous buffer, kinetic from dmso stock, phosphate citrate buffer pH 7.4, turbidity of three dilution steps; read-out: Solubility Score
Method in brief: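 DMSO stock (5 mM) diluted in three consecutive steps into phosphate citrate buffer pH 7.4, in triplicate; turbidity of each dilution read by nephelometry immediately after the last step. Compounds ranked into 3 classes: score 3 if first dilution clear, 2 if first unclear but second clear.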

[2] = biological target: histone deacetylase (HeLa nuclear extracts); assay: In vitro assay for inhibition of histone deacetylase; type: biochemical; settings: [3H]acetylated histone H4 peptide substrate
[3] = system: A2780 ovarian carcinoma cells; assay: Antiproliferative activity on A2780 cells (MTT); type: cell-based, human; settings: Homo sapiens, A2780, 96 h, four days of incubation, read-out: Cellular activity pIC50 (converted)
Method in brief: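 A2780 ovarian carcinoma cells were seeded at 1500 cells/well and exposed to compound for four days, with DMSO ≤0.1%. Viability was measured by MTT (2 h, 37° C) and expressed as a percentage of untreated controls after blank subtraction. Initial single-point testing was at 10^−6 M, then full curves gave pIC50.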

Structure (SMILES) | solubility [1] | Enzyme activity pIC50 [2] | IC50 [3]
O=C(NO)c1cnc(N2CCN(S(=O)(=O)c3ccc(-c4ccc[nH]4)cc3)CC2)nc1 [Compound 137] | 75.8 to 454 µM (≈ 32.5 to 195 µg/mL) | 7.169 | 1120 nM
COc1cncc(-c2ccc(S(=O)(=O)N3CCN(c4ncc(C(=O)NO)cn4)CC3)cc2)c1 [Compound 138] | 75.8 to 454 µM (≈ 35.7 to 214 µg/mL) | 7.545 | 249 nM
O=C(NO)c1ccc(N2CCN(S(=O)(=O)c3ccc4ccccc4c3)CC2)nc1 [Compound 142] | > 454 µM | 8.01 | 286 nM
CN(C)CC1CN(c2ncc(C(=O)NO)cn2)CCN1S(=O)(=O)c1ccc(-c2ccccc2)cc1 (stereo not drawn) [Compound 143] | > 454 µM | 7.002 | 1320 nM
CN1CCN(Cc2sccc2-c2ccc(S(=O)(=O)N3CCN(c4ncc(C(=O)NO)cn4)CC3)cc2)CC1 [Compound 144] | > 454 µM | 8.428 | 81.5 nM
O=C(NO)c1cnc(N2CCN(S(=O)(=O)c3ccc(-c4ccsc4CN(CCO)CCO)cc3)CC2)nc1 [Compound 145] | < 75.8 µM | 8.06 | 279 nM
CN(C)S(=O)(=O)N1CCN(Cc2sccc2-c2ccc(S(=O)(=O)N3CCN(c4ncc(C(=O)NO)cn4)CC3)cc2)CC1 [Compound 147] | < 75.8 µM | 6.765 | 693 nM
O=C(NO)c1cnc(N2CCN(S(=O)(=O)c3ccc(-c4ccsc4CN4CCOCC4)cc3)CC2)nc1 [Compound 148] | < 75.8 µM | 7.94 | 176 nM
COC1CCN(Cc2sccc2-c2ccc(S(=O)(=O)N3CCN(c4ncc(C(=O)NO)cn4)CC3)cc2)CC1 [Compound 149] | 75.8 to 454 µM (≈ 43.4 to 260 µg/mL) | 8.175 | 144 nM
O=C(NO)c1cnc(N2CCN(S(=O)(=O)c3ccc(-c4ccsc4CN4CCN(CCOCCO)CC4)cc3)CC2)nc1 [Compound 150] | 75.8 to 454 µM (≈ 47.9 to 287 µg/mL) | 8.011 | 164 nM
CN(CCO)Cc1sccc1-c1ccc(S(=O)(=O)N2CCN(c3ncc(C(=O)NO)cn3)CC2)cc1 [Compound 151] | > 454 µM | 8.152 | 137 nM
O=C(NO)c1cnc(N2CCN(S(=O)(=O)c3ccc(-c4ccsc4CN4CCN(CCO)CC4)cc3)CC2)nc1 [Compound 152] | > 454 µM | 8.156 | 164 nM
CN(C)CCCOc1ccccc1-c1ccc(S(=O)(=O)N2CCN(c3ncc(C(=O)NO)cn3)CC2)cc1 [Compound 154] | < 75.8 µM | 8.869 | 64 nM
CN1CCN(Cc2ccccc2-c2ccc(S(=O)(=O)N3CCN(c4ncc(C(=O)NO)cn4)CC3)cc2)CC1 [Compound 157] | > 454 µM | 8.228 | 96.2 nM
O=C(NO)c1cnc(N2CCN(S(=O)(=O)c3ccc(-c4ccccc4CN4CCOCC4)cc3)CC2)nc1 [Compound 158] | 75.8 to 454 µM (≈ 40.8 to 245 µg/mL) | 7.784 | 446 nM
CN(C)CCN(C)Cc1ccccc1-c1ccc(S(=O)(=O)N2CCN(c3ncc(C(=O)NO)cn3)CC2)cc1 [Compound 159] | > 454 µM | 8.61 | 95.9 nM
O=C(NO)c1cnc(N2CCN(S(=O)(=O)c3ccc(-c4ccccc4CN(CCO)CCO)cc3)CC2)nc1 [Compound 160] | 75.8 to 454 µM (≈ 42.2 to 253 µg/mL) | 8.272 | 278 nM
CN(C)CCN(C)Cc1ccc(-c2ccc(S(=O)(=O)N3CCN(c4ncc(C(=O)NO)cn4)CC3)cc2)cc1 [Compound 164] | 75.8 to 454 µM (≈ 42 to 252 µg/mL) | 8.308 | 48.3 nM
O=C(NO)c1cnc(N2CCN(S(=O)(=O)c3ccc(-c4ccc(CN5CCN(CCOCCO)CC5)cc4)cc3)CC2)nc1 [Compound 165] | < 75.8 µM | 7.947 | 55.6 nM
